Entries after “also recorded” stand apart in the source; their conditions may differ. Read-outs that look alike come from different tables or passages of the source.
Legend:
interferon = conditions: background, cited from earlier work
[1] = 56° C. for 5 hours; cited from earlier work
Human spleen = test: IF induction in vitro, human spleen (determined in FL cells); type: cell-based; conditions: 1.0* μg/ml, control
Method: A spleen cell suspension (10^7 cells/ml) was prepared by the method of hereinafter described Experiment 1 using an Eagle MEM medium (commercial product of Nissui Seiyaku K.K., Tokyo) containing a 10% calf serum (which was replaced by a 10% fetal cattle serum in the cases of human tests), each of which fraction (1 ml) was added with a given concentration of the sample and incubated overnight at a given temperature. The cultured liquor was centrifuged to separate a supernatant which was used for determining the IF activity induced. In the case of humans, the fresh spleen was collected from a person (adult deceased by external wounds) and used for the preparation of a leucocytes suspension on each occasion, and also blood was collected from the vein at the upper arm of a person (adult), from which the serum was separated to use for the preparation of a serum suspension of each occasion.
The IF activities were determined by using the cells shown in Table 5 in a similar manner to that hereinafter described in Experiment 1.

spleen cell [2] = test: IF induction in vitro, mouse spleen cells (determined in L cells); type: cell-based; conditions: 1.0* μg/ml, control
spleen cell [3] = test: IF induction in vitro, rabbit spleen cells (determined in RK-13); type: cell-based; conditions: 1.0* μg/ml, control

| Molecule | IF inducing activity (interferon) | IF-inducing activity on heating [1] | also measured |
| --- | --- | --- | --- |
| carthamone | no IF inducing activity |  |  |
| O=C(/C=C/c1ccc(O)cc1)C1=C(O)[C@](O)([C@@H]2O[C@H](CO)[C@@H](O)[C@H](O)[C@H]2O)C(O)=C(/C=C2/C(=O)C(C(=O)/C=C/c3ccc(O)cc3)=C(O)[C@@](O)([C@@H]3O[C@H](CO)[C@@H](O)[C@H](O)[C@H]3O)C2=O)C1=O [carthamine] | no IF inducing activity |  |  |
| neocarthamine | no IF inducing activity |  |  |
| pokeweed mitogen | very weak; also recorded: extremely low | inactivated |  |
| phytohemagglutinin | very weak | inactivated | IF inducing activity (interferon; listed as phytohemagglitinin): extremely low |
| Poly I:C |  |  | IF activity in vitro (Human spleen): < 10; IF activity in vitro (spleen cell [2]): 75; IF activity in vitro (spleen cell [3]): 160 |
